Results: patent US12509431B2, “1,4-dihydroquinazolinone compounds and uses thereof” (Edgewise Therapeutics, Inc., priority 2022, dated 2025)

Legend:
Format in all cases: biochemical
Details in all cases: Table 8
Porcine Atria myofibrils = assay: Myofibril ATPase assay (PK/LDH NADH-coupled), atria myofibrils
Procedure, shortened: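 Porcine atrial myofibril ATPase followed via PK/LDH-coupled NADH depletion, absorbance at 340 nm read every 1.5-2 min over 75 min. Slopes (mAU/min) normalized to vehicle as 100% and fit to a 4-parameter logistic; EC25% derived, plus EC50% for inhibitors.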

[1] = system: Rabbit Skeletal myofibrils (rabbit psoas muscle); assay: Myofibril ATPase assay (PK/LDH NADH-coupled), skeletal myofibrils
Procedure, shortened: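 Rabbit psoas myofibrils in pCa (PIPES/CaCl2/EGTA, pH 7.0) buffer; ADP coupled via PK/LDH to NADH loss, read at 340 nm every 1.5–2 min for 75 min. Slopes normalized to vehicle (100%) and fit to 4-parameter logistic for EC25, plus EC50 for inhibitors.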

[2] = biological target: T1, Porcine Ventricle myofibrils (left ventricle of Yucatan minipigs) (Sus scrofa, UniProt P79293); assay: Myofibril ATPase assay (PK/LDH NADH-coupled), ventricle myofibrils
T1 construct: Myofibrils from porcine cardiac muscle was isolated from the left ventricle of Yucatan minipigs; tissue Exemplar Genetics; host or cells: left ventricle of Yucatan minipigs
Procedure, shortened: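 Yucatan minipig left-ventricle myofibrils; ATPase measured by PK/LDH-coupled NADH loss at 340 nm, read every 1.5-2 min for 75 min. Slopes normalized to vehicle (100%) and fit to 4-parameter logistic model; EC25 and, for inhibitors, EC50 calculated.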

T1 sequence (P79293 whole entry): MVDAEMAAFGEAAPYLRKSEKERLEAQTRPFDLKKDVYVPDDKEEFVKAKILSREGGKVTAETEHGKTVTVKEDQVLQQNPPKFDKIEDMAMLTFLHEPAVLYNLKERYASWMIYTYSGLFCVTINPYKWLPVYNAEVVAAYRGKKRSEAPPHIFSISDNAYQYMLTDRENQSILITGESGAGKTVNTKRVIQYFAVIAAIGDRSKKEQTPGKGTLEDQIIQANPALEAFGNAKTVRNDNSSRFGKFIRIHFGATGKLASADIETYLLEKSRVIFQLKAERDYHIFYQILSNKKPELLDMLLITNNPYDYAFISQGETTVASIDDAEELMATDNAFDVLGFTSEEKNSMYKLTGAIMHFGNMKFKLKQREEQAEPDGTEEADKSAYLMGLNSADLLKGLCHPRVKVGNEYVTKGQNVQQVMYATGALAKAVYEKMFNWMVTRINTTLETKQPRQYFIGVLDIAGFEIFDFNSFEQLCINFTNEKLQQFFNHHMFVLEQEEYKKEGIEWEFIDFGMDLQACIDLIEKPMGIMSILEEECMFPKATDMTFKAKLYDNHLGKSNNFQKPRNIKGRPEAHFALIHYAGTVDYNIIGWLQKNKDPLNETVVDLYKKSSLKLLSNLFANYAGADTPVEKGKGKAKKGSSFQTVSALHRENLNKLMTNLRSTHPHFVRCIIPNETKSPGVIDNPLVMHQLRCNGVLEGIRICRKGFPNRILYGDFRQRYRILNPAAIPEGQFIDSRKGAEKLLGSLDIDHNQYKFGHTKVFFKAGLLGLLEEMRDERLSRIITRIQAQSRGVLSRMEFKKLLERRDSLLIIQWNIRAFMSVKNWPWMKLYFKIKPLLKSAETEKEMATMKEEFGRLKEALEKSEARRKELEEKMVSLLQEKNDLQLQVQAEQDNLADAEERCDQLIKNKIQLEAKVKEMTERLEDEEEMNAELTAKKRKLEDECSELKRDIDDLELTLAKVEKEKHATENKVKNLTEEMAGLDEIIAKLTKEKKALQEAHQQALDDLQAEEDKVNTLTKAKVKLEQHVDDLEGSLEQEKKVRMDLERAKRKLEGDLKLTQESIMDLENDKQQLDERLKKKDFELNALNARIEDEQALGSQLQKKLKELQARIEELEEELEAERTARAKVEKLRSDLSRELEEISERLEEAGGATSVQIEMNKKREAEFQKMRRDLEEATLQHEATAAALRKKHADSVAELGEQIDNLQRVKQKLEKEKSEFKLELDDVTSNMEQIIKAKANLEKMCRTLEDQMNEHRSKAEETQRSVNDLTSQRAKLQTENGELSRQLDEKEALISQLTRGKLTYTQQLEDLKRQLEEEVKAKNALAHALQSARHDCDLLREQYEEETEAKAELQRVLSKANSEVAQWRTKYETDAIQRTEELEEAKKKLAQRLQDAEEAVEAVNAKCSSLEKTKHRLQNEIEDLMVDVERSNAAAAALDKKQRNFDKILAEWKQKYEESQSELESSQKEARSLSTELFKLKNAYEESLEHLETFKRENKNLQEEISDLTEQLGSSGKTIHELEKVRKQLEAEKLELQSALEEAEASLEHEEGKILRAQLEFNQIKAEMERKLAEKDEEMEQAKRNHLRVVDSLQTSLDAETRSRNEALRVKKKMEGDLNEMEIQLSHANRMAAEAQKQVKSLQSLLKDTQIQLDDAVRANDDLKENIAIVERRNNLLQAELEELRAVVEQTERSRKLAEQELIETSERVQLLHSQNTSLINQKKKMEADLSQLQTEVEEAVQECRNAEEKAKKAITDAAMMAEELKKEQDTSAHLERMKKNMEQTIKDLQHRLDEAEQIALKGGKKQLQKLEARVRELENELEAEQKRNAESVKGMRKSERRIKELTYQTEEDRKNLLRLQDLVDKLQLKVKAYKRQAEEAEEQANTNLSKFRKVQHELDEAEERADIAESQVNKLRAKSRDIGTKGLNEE

For `C[C@@H](NC(=O)CN1Cc2c(ccc(F)c2F)NC1=O)c1ncc(F)cc1F` [Compound B190], the “Porcine Atria IC25” value (Porcine Atria myofibrils) was 17.83 µM, the “Rabbit Psoas IC25” value [1] was 9.504 µM and the “Porcine Ventricle IC25” value [2] was 50.31 µM.
For `Cc1cccnc1[C@@H](C)NC(=O)CN1Cc2cc(F)ccc2NC1=O` [Compound B192], the “Porcine Atria IC25” value (Porcine Atria myofibrils) was 100.00 µM, the “Rabbit Psoas IC25” value [1] was 100 µM and the “Porcine Ventricle IC25” value [2] was 100 µM.
With `Cc1cccnc1[C@H](C)NC(=O)CN1Cc2cc(F)ccc2NC1=O` [Compound B193] the “Porcine Atria IC25” value (Porcine Atria myofibrils) was 28.17 µM, the “Rabbit Psoas IC25” value [1] was 41.67 µM and the “Porcine Ventricle IC25” value [2] was 40.61 µM.
`Cc1cnc([C@@H](C)NC(=O)CN2Cc3cc(F)ccc3NC2=O)c(F)c1` [Compound B194] was tested, and the “Porcine Atria IC25” value (Porcine Atria myofibrils) was 3.71 µM, the “Rabbit Psoas IC25” value [1] was 6.088 µM and the “Porcine Ventricle IC25” value [2] was 78.56 µM.
In the case of `Cc1cnc([C@H](C)NC(=O)CN2Cc3cc(F)ccc3NC2=O)c(F)c1` [Compound B195], the “Porcine Atria IC25” value (Porcine Atria myofibrils) was 100.00 µM, the “Rabbit Psoas IC25” value [1] was 100 µM and the “Porcine Ventricle IC25” value [2] was 100 µM.
For `C[C@@H](NC(=O)CN1Cc2cc(C#N)ccc2NC1=O)c1ncc(F)cc1F` [Compound B196], the “Porcine Atria IC25” value (Porcine Atria myofibrils) was 100.00 µM, the “Rabbit Psoas IC25” value [1] was 100 µM and the “Porcine Ventricle IC25” value [2] was 100 µM.
`C[C@H](NC(=O)CN1Cc2cc(C#N)ccc2NC1=O)c1ncc(F)cc1F` [Compound B197] was tested, and the “Porcine Atria IC25” value (Porcine Atria myofibrils) was 18.70 µM, the “Rabbit Psoas IC25” value [1] was 87.6 µM and the “Porcine Ventricle IC25” value [2] was 100 µM.
`C[C@@H](NC(=O)CN1Cc2cc(F)ccc2NC1=O)c1ncc(C#N)cc1F` [Compound B198] was tested, and the “Porcine Atria IC25” value (Porcine Atria myofibrils) was 100.00 µM, the “Rabbit Psoas IC25” value [1] was 100 µM and the “Porcine Ventricle IC25” value [2] was 100 µM.
With `C[C@H]1c2ccccc2NC(=O)N1CC(=O)N[C@@H](CO)c1ccc(F)cc1F` [Compound B201] the “Porcine Atria IC25” value (Porcine Atria myofibrils) was 25.98 µM, the “Rabbit Psoas IC25” value [1] was 18.61 µM and the “Porcine Ventricle IC25” value [2] was 100 µM.
With `CC(NC(=O)CN1Cc2cc(F)ccc2NC1=O)c1ccccc1Br` (stereo not drawn) [Compound B202] the “Porcine Atria IC25” value (Porcine Atria myofibrils) was 0.18 µM, the “Rabbit Psoas IC25” value [1] was 0.1741 µM and the “Porcine Ventricle IC25” value [2] was 1.035 µM.
With `C[C@@H](NC(=O)CN1Cc2cc(F)ccc2NC1=O)c1ccc(C#N)cc1` [Compound B203] the “Porcine Atria IC25” value (Porcine Atria myofibrils) was 5.48 µM, the “Rabbit Psoas IC25” value [1] was 14.19 µM and the “Porcine Ventricle IC25” value [2] was 23.26 µM.
`C[C@H](NC(=O)CN1Cc2cc(F)ccc2NC1=O)c1ccc(C#N)cc1` [Compound B204] was tested, and the “Porcine Atria IC25” value (Porcine Atria myofibrils) was 0.27 µM, the “Rabbit Psoas IC25” value [1] was 0.1501 µM and the “Porcine Ventricle IC25” value [2] was 1.393 µM.
`C[C@@H](NC(=O)CN1Cc2cc(F)ccc2NC1=O)c1ccc(C#N)cc1F` [Compound B205] was tested, and the “Porcine Atria IC25” value (Porcine Atria myofibrils) was 2.07 µM, the “Rabbit Psoas IC25” value [1] was 6.054 µM and the “Porcine Ventricle IC25” value [2] was 16.29 µM.
`CC(C)C[C@@H](C(=O)N[C@@H](C)c1ccc(F)cc1F)N1Cc2cc(F)ccc2NC1=O` [Compound B207] was tested, and the “Porcine Atria IC25” value (Porcine Atria myofibrils) was 100.00 µM, the “Rabbit Psoas IC25” value [1] was 100 µM and the “Porcine Ventricle IC25” value [2] was 100 µM.
With `CC(C)C[C@H](C(=O)N[C@@H](C)c1ccc(F)cc1F)N1Cc2cc(F)ccc2NC1=O` [Compound B208] the “Porcine Atria IC25” value (Porcine Atria myofibrils) was 100.00 µM, the “Rabbit Psoas IC25” value [1] was 100 µM and the “Porcine Ventricle IC25” value [2] was 100 µM.
With `Cc1ccc([C@@H](C)NC(=O)CN2Cc3cc(F)ccc3NC2=O)c(F)c1` [Compound B209] the “Porcine Atria IC25” value (Porcine Atria myofibrils) was 12.15 µM, the “Rabbit Psoas IC25” value [1] was 100 µM and the “Porcine Ventricle IC25” value [2] was 100 µM.
With `Cc1ccc([C@H](C)NC(=O)CN2Cc3cc(F)ccc3NC2=O)c(F)c1` [Compound B210] the “Porcine Atria IC25” value (Porcine Atria myofibrils) was 0.18 µM, the “Rabbit Psoas IC25” value [1] was 0.1421 µM and the “Porcine Ventricle IC25” value [2] was 2.251 µM.
For `C[C@@H](C(=O)N[C@H](CO)c1ccc(F)cc1F)N1Cc2c(Cl)cccc2NC1=O` [Compound B211], the “Porcine Atria IC25” value (Porcine Atria myofibrils) was 100.00 µM, the “Rabbit Psoas IC25” value [1] was 100 µM and the “Porcine Ventricle IC25” value [2] was 100 µM.
For `C[C@@H](C(=O)N[C@@H](CO)c1ccc(F)cc1F)N1Cc2c(Cl)cccc2NC1=O` [Compound B212], the “Porcine Atria IC25” value (Porcine Atria myofibrils) was 1.52 µM, the “Rabbit Psoas IC25” value [1] was 77.91 µM and the “Porcine Ventricle IC25” value [2] was 15.17 µM.
In the case of `C[C@H](C(=O)N[C@H](CO)c1ccc(F)cc1F)N1Cc2c(Cl)cccc2NC1=O` [Compound B213], the “Porcine Atria IC25” value (Porcine Atria myofibrils) was 97.43 µM, the “Rabbit Psoas IC25” value [1] was 100 µM and the “Porcine Ventricle IC25” value [2] was 100 µM.
For `C[C@H](C(=O)N[C@@H](CO)c1ccc(F)cc1F)N1Cc2c(Cl)cccc2NC1=O` [Compound B214], the “Porcine Atria IC25” value (Porcine Atria myofibrils) was 0.07 µM, the “Rabbit Psoas IC25” value [1] was 0.088 µM and the “Porcine Ventricle IC25” value [2] was 0.2408 µM.
With `C[C@@H](NC(=O)CN1Cc2cc(F)ccc2NC1=O)c1ncccn1` [Compound B215] the “Porcine Atria IC25” value (Porcine Atria myofibrils) was 100.00 µM, the “Rabbit Psoas IC25” value [1] was 100 µM and the “Porcine Ventricle IC25” value [2] was 100 µM.
`C[C@H](NC(=O)CN1Cc2cc(F)ccc2NC1=O)c1ncccn1` [Compound B216] was tested, and the “Porcine Atria IC25” value (Porcine Atria myofibrils) was 100.00 µM, the “Rabbit Psoas IC25” value [1] was 100 µM and the “Porcine Ventricle IC25” value [2] was 100 µM.
For `O=C(CN1Cc2cc(F)ccc2NC1=O)N[C@H](CO)c1ccc(F)cc1F` [Compound B217], the “Porcine Atria IC25” value (Porcine Atria myofibrils) was 0.13 µM, the “Rabbit Psoas IC25” value [1] was 0.0678 µM and the “Porcine Ventricle IC25” value [2] was 0.8987 µM.
For `O=C(CN1Cc2cc(F)ccc2NC1=O)N[C@@H](CO)c1ccc(F)cc1F` [Compound B218], the “Porcine Atria IC25” value (Porcine Atria myofibrils) was 8.55 µM, the “Rabbit Psoas IC25” value [1] was 9.306 µM and the “Porcine Ventricle IC25” value [2] was 100 µM.
For `C[C@H](NC(=O)[C@H](Cc1ccccc1)N1Cc2cc(F)ccc2NC1=O)c1ccc(F)cc1F` [Compound B219], the “Porcine Atria IC25” value (Porcine Atria myofibrils) was 100.00 µM, the “Rabbit Psoas IC25” value [1] was 31.8 µM and the “Porcine Ventricle IC25” value [2] was 100 µM.
With `C[C@H](NC(=O)[C@@H](Cc1ccccc1)N1Cc2cc(F)ccc2NC1=O)c1ccc(F)cc1F` [Compound B220] the “Porcine Atria IC25” value (Porcine Atria myofibrils) was 53.57 µM, the “Rabbit Psoas IC25” value [1] was 47.56 µM and the “Porcine Ventricle IC25” value [2] was 100 µM.
In the case of `C[C@H](NC(=O)CN1C(=O)Nc2ccc(F)cc2C12CC2)c1ccc(F)cc1F` [Compound B221], the “Porcine Atria IC25” value (Porcine Atria myofibrils) was 0.03 µM, the “Rabbit Psoas IC25” value [1] was 0.0174 µM and the “Porcine Ventricle IC25” value [2] was 0.1086 µM.
With `C[C@H](NC(=O)[C@H](C)N1Cc2c(F)cccc2NC1=O)c1ccc(F)cc1F` [Compound B222] the “Porcine Atria IC25” value (Porcine Atria myofibrils) was 0.05 µM, the “Rabbit Psoas IC25” value [1] was 0.041 µM and the “Porcine Ventricle IC25” value [2] was 0.4365 µM.
